Data set [1] in a line: Solubility in water. Conditions: at 20° C. The data set is classed as physicochemical.
A short description of data set [2]: Solubility in methanol. The data set is classed as physicochemical. The settings on record: organic solvent or mixture, at 20° C.
A short description of data set [3]: Solubility of crystal types in aqueous solution. The data set is classed as physicochemical.
Data set [4] is described as follows: pKa. The data set is classed as physicochemical.
Data set [5] is classed as physicochemical. How it is done: In the case of these two types, not only their melting behavior differs but also their storage stabilities. […] During DSC determination (DSC=Differential Scanning Calorimetry)of the crystal form of type II, on slow heating above the melting point at approximately 200° C. the crystal type IV which melts at approximately 220-226° C. crystallizes out. Crystal type IV is also detected when a melt of type II (just above 200° C.) is suddenly cooled and stored at room temperature for a period of 12 to 16 hours. […] In contrast to this, however, by seeding with seed crystals of type […] the crystal form IV is especially obtained. Additionally, the solubility of the crystal type IV in aqueous solution is lower than that of type II.

Data set [6] concerns writhing (pain). The data set can be described thus: writhing test. The data set is classed as in vivo. Conditions: mice or rats. The text has this: Experiments have shown that the compound according to the invention is active in the "writhing test" on mice or rats (method cf. Siegmund et al., Proc. Soc. Exp. Biol. 95, (1957), 729-731).
For orientation: Writhing tests count abdominal constrictions after an irritant is injected.

For data set [7], the system named is inflammation-related hyperalgesias. The experiment in a line: analgesic action / inflammation-related hyperalgesias. The settings on record: in vivo.
The test system of data set [8] is burns. The experiment in a line: treatment of burns and sunburn. The data set is classed as in vivo. Conditions: heat, flames, severe sunburn.
Data set [9] deals with neurodermatitis. The data set can be described thus: treatment of neurodermatitis. The data set is classed as in vivo.
Data set [10] concerns kappa-receptors. The experiment in a line: binding to kappa-receptors.
The nature of data set [11]: anti-inflammatory, diuretic, anticonvulsive and neuroprotective actions (familiar methods). Conditions: in vivo.
A short description of data set [12]: pharmaceutical activity of crystal forms. The data set is classed as in vivo.
In data set [13] the test system is rheumatic disorders and back conditions. The data set can be described thus: treatment of rheumatic disorders and back conditions. The data set is classed as in vivo.
Data set [14] deals with carrageenan-induced hyperalgesia. The experiment in a line: carrageenan-induced hyperalgesia model. The data set is classed as in vivo. The settings on record: rats.
Data set [15] has as its system allergic skin reactions. The data set can be described thus: treatment of allergies to the sun. The data set is classed as in vivo.
For data set [16], the system named is intestinal motility. The experiment in a line: inflammatory bowel disorders / intestinal motility. The data set is classed as in vivo. The settings on record: inflammatory bowel disorder.
Data set [17] is described as follows: blood-brain barrier passage. The settings on record: due to its structure.
For data set [18], the system named is physical dependence. The experiment in a line: physical dependence / dependence potential. The data set is classed as in vivo.
The nature of data set [19]: side effects. The settings on record: in vivo.
[20] abbreviates: listed as N-methyl-N-[(1S)-1-phenyl-2-((3S)-3-hydroxypyrrolidin-1-yl)ethyl]-2,2-diphenylac.

This is an account of results in patent publication US6060504A, “N-methyl-N-[(1S)-1-phenyl-2-(3S)-hydroxypyrrolidin-1-yl)ethyl]-2 -2-diphenylacetamide” (priority 1995, dated 2000).

Molecules are shown by their SMILES. Where a name gives a salt, the structure may show the parent alone. Read-outs that look alike come from different tables or passages of the source.

The term solubility denotes how much of the substance goes into solution per volume. What is called pKa is the negative logarithm of the acid dissociation constant.

`CN(C(=O)C(c1ccccc1)c1ccccc1)[C@H](CN1CC[C@H](O)C1)c1ccccc1.Cl` [Example 1, N-methyl-N-[(1S)-1-phenyl-2-((3S)-3-hydroxypyrrolidin-1-yl)ethyl]-2,2-diphenylacetamide hydrochloride]: the figures for the solubility in [1] and in data set [2] were 7.6 mg/mL and 42.6 mg/mL, respectively. The “solubility of crystal type IV relative to the solubility of type II” value in [3] is listed as 45% to 70. Moreover, the pKa in [4] came out at 7.4.

For `CN(C(=O)C(c1ccccc1)c1ccccc1)[C@H](CN1CC[C@H](O)C1)c1ccccc1` [Comparison Example, N-methyl-N-[(1S)-1-phenyl-2-((3S)-3-hydroxypyrrolidin-1-yl)ethyl]-2.2-diphenylacetamide hydrochloride], the values for the solubility in data set [1] and in data set [2] were 11.6 mg/mL and 63.1 mg/mL, respectively. The “stability of crystal form” value in data set [5] is listed as “metastable”. In addition, the “storage at high humidity” value in [5] (atmospheric humidity approximately 73% to 95%) was “A form designated as type III is obtained”. Further, the “storage at 170° C.” value in data set [5] (drying oven at 170° C.) was “a partial conversion into type IV was detected”. In addition, the “seven months' storage” value in data set [5] (seven months, room temperature) was “a start of conversion to the thermostable crystal modification IV”. Moreover, the pKa in data set [4] (read-out: pKa) stood at 7.4.

`CN(C(=O)C(c1ccccc1)c1ccccc1)[C@H](CN1CC[C@H](O)C1)c1ccccc1` [compound according to the invention, N-methyl-N-[(1S)-1-phenyl-2-((3S)-3-hydroxypyrrolidin-1-yl)ethyl]-2,2-diphenylacetamide]: the “activity in the writhing test” value in [6] is given as “active”. Further, in data set [7], the analgesic actions entry is on record as “particularly good analgesic actions” and the “antagonism of inflammation-related hyperalgesias” value is listed as “antagonize”. In addition, the treatment of burns entry in [8] is “particularly suitable in the treatment of burns”. Further, in [9], the “inflammatory reactions, neurodermatitis” value is given as “favorably influenced” and the “itching, neurodermatitis” value is on record as “the itching of the skin in this disorder subsides”. Moreover, in data set [10], the affinity to kappa-receptors entry is “high affinity”. Besides, in data set [11], the anti-inflammatory action result is given as “pronounced”, the anticonvulsive action entry is on record as “pronounced”, the diuretic action result is recorded as “pronounced” and the neuroprotective action entry is given as “pronounced”. The “dependence of pharmaceutical activity on crystal form” value in [12] (in vivo) was “relatively independent of the crystal form”. Also, the “efficacy in rheumatic disorders and back conditions” value in data set [13] (in vivo) is recorded as “particularly effective”. Besides, the “normal motility of the gastrointestinal tract” value in data set [13] (rheumatic disorders and back conditions) was “not adversely affected”. Also, in data set [14], the “action in carrageenan-induced hyperalgesia model” value was “Particularly strong actions”. For the same compound, in data set [15], the allergic skin reactions result is given as “allergic skin reactions rapidly fade” and the “itching, allergies to the sun” value is given as “rapidly subsides”. Further, in data set [16], the intestinal motility normalization entry is given as “suitable for normalizing disorders of the intestinal motility”. Further, the intestinal motility normalization result in [16] (setting [20]) is “normalizes the motility of the intestine or sets it in motion again”. Besides, the blood-brain barrier passage result in data set [17] is “cannot pass through the blood-brain barrier”. Also, the dependence potential result in data set [18] (attributed to no blood-brain barrier passage) was “no dependence potential”. Besides, the “tendency to physical dependence” value in [18] (in vivo) was “no or only a small tendency to physical dependence”. Moreover, in [19], the side effects entry is reported as “no side effects have been found which would restrict the use”. In addition, in data set [19] (setting [20]), the side effects entry is recorded as “without causing noticeable side effects”.

`CN(C(=O)C(c1ccccc1)c1ccccc1)[C@H](CN1CC[C@H](O)C1)c1ccccc1.Cl` [N-methyl-N-[(1S)-1-phenyl-2-((3S)-3-hydroxypyrrolidin-1-yl)ethyl]-2,2-diphenylacetamide hydrochloride]: the “effectiveness as medicament in all indication areas” value in data set [12] (all types of preparation forms) is recorded as “particularly effective”.

Regarding `CN(C(=O)C(c1ccccc1)c1ccccc1)[C@H](CN1CC[C@H](O)C1)c1ccccc1` [type I, N-methyl-N-[(1S)-1-phenyl-2-((3S)-3-hydroxypyrrolidin-1-yl)ethyl]-2,2-diphenylacetamide], the “conversion of solvate type I” value in data set [5] (slow heating releases solvent) is recorded as “readily converted into another crystal type”.
